US9975880B2, “Imidazolidine-2,4-dione dervatives” (IPSEN PHARMA S.A.S., priority 2013, dated 2018)
≈ marks a conversion by molar mass, not a printed value. Where two headings read alike, the source gives them in different places.

Key:
DU145 cells = assay: Anti-proliferative activity on DU145 in complete medium; assay type: cell-based; conditions: DU145 (no androgen receptor), 144 h, up to 10,000 nM, Cell-Titer-Glow
Procedure: It is used to evaluate the selectivity of the compounds for androgen receptor expressing cells. No activity of the compounds is expected. • The cells of the DU145 line (ATCC HTB-81) are seeded at 800 cells/well in 90 μl of complete medium in 96-well plates coated with poly-D-lysine (Biocoat, Costar). • Treatment of the cells: 24 h after the seeding, the cells are treated with 10 μl/well of compound diluted in the culture medium. The concentrations used are the following: 1 nM/10/30/100/300/1000/3000/10,000 nM. The cells are incubated for 144 h at 37° C., 5% CO2. • Reading: After incubation for 6 days, cell proliferation was determined by Cell-Titer-Glow (CTG) Luminescent Cell Viability Assay • Results: The experiments are carried out in duplicate and the best compounds are tested twice. A concentration value inhibiting the cell proliferation by 50% (IC50) is calculated.

LNCaP cells = assay: Anti-proliferative activity on LNCaP in complete medium; assay type: cell-based; conditions: Homo sapiens, 144 h
Procedure: The anti-proliferative activity of the compounds of the present invention is determined on LNCaP in complete medium by applying the following experimental procedure:
The LNCaP cell type (ATCC, 1740) originates from a prostate carcinoma. This line expresses the androgen receptor and is hormone-dependent.
Maintenance of the LNCaP line is carried out in complete culture medium: RPMI, 10% of fetal calf serum, 2 mM glutamine, 100 U/ml penicillin, 0.1 mg/ml of streptomycin and 0.01M HEPES, 1 mM sodium pyruvate, […]. • Seeding the plates:
The LNCaP line is seeded at 20,000 cells/well in 90 μl of complete medium in 96-well plates coated with poly-D-lysine (Biocoat, Costar). • Treatment of the cells: 24 h after the seeding, the cells are treated with 10 μl/well of compound diluted in the culture medium. The concentrations used are the following: 1 nM/10/30/100/300/1000/3000/10,000 nM. The cells are incubated for 144 h at 37° C., 5% CO2. • Reading: After incubation for 6 days, cell proliferation was determined by Cell-Titer-Glow (CTG) Luminescent Cell Viability Assay. • Results: The experiments are carried out in duplicate and the best compounds are tested twice. […] Anti-Proliferative Activity on DU145 in Complete Medium

Evaluation of solubility = assay type: physicochemical; conditions: aqueous buffer, kinetic from dmso stock; 100 mM potassium phosphate buffer pH 7.4, 0.1% DMSO, target 100 μM, 1 hour room temperature, LC-MS/MS
Procedure: Test compounds were prepared as stock solutions at 100 mM in DMSO. The stock solutions were diluted, in duplicate, into 100 mM potassium phosphate buffer (pH 7.4) to a target concentration of 100 μM with a final DMSO concentration of 0.1%. The solutions were shaken at 1000 rpm for 1 hour at room temperature followed by centrifugation for 10 minutes at 1200 rpm to precipitate un-dissolved particles. The supernatants were transferred to new tubes and the samples were further prepared as follows: • Undiluted: 5 μL of supernatant to 95 μL of ACN containing internal standard (IS) • 1:10 diluted: 10 μL of the supernatant into 90 μL K-buffer, mix, then transfer 5 μL of 1:10 diluted samples to 95 μL ACN containing IS • 1:100 diluted: 10 μL of the supernatant into 990 μL K-buffer, mix, then transfer 5 μL of 1:100 diluted samples to 95 μL of ACN containing IS
Samples (undiluted, 1:10 diluted, and 1:100 diluted) along with the standards were analyzed by LC-MS/MS.

[1] = complete medium, 144 h incubation, Cell-Titer-Glow, read-out: IC50 on the LNCaP cells in culture (inhibition of cell proliferation by 50%)
[2] = read-out: IC50 on the LNCaP cells in culture (inhibition of cell proliferation by 50%), LNCaP, complete medium, 144 h incubation, Cell-Titer-Glow

Structure (SMILES): CC1(C)C(=O)N(c2ccc(C#N)c(C(F)(F)F)c2)C(=O)N1C/C=C\Cn1cc(-c2ccc(C#N)c(C(F)(F)F)c2)cn1 [Example 1, (Z)-4-(3-(4-(4-(4-cyano-3-(trifluoromethyl)phenyl)-1H-pyrazol-1-yl)but-2-en-1-yl)-4,4-dimethyl-2,5-dioxoimidazolidin-1-yl)-2-(trifluoromethyl)benzonitrile]
- IC50 on DU145 cells (anti-proliferative effect) (DU145 cells): no measurable IC50

Structure (SMILES): CC1(C)C(=O)N(c2ccc(S(C)(=O)=O)c(Cl)c2)C(=O)N1C/C=C\CN1CCC(O)(c2ccc(C#N)c(C(F)(F)F)c2)C1 (stereo not drawn) [Example 16, (Z)-4-(1-(4-(3-(3-chloro-4-(methylsulfonyl)phenyl)-5,5-dimethyl-2,4-dioxoimidazolidin-1-yl)but-2-en-1-yl)-3-hydroxypyrrolidin-3-yl)-2-(trifluoromethyl)benzonitrile]
- IC50 on DU145 cells (anti-proliferative effect) (DU145 cells): no measurable IC50
- IC50 (LNCaP cells; [1]): < 1500 nM

Structure (SMILES): CC1(C)C(=O)N(c2ccc(C#N)c(C(F)(F)F)c2)C(=O)N1C/C=C\Cn1cc(-c2ccccc2)nn1 [Example 19, (Z)-4-(4,4-dimethyl-2,5-dioxo-3-(4-(4-phenyl-1H-1,2,3-triazol-1-yl)but-2-en-1-yl)imidazolidin-1-yl)-2-(trifluoromethyl)benzonitrile]
- IC50 (LNCaP cells; [1]): < 1500 nM

Structure (SMILES): CC1(C)CN(c2ccc(S(C)(=O)=O)c(C(F)(F)F)c2)C(=O)N1C/C=C\CN1C(=O)N(c2ccc(C#N)c(C(F)(F)F)c2)C(=O)C1(C)C [Example 7, (Z)-4-(3-(4-(5,5-dimethyl-3-(4-(methylsulfonyl)-3-(trifluoromethyl)phenyl)-2-oxoimidazolidin-1-yl)but-2-en-1-yl)-4,4-dimethyl-2,5-dioxoimidazolidin-1-yl)-2-(trifluoromethyl)benzonitrile]
- IC50 on DU145 cells (anti-proliferative effect) (DU145 cells): no measurable IC50
- IC50 (LNCaP cells; [1]): < 1500 nM

Structure (SMILES): CC1(C)C(=O)N(c2ccc(S(C)(=O)=O)c(C(F)(F)F)c2)C(=O)N1C/C=C\CN1CC(c2ccc(S(C)(=O)=O)c(C(F)(F)F)c2)CC1=O (stereo not drawn) [Example 15, (Z)-5,5-dimethyl-3-(4-(methylsulfonyl)-3-(trifluoromethyl)phenyl)-1-(4-(4-(4-(methylsulfonyl)-3-(trifluoromethyl)phenyl)-2-oxopyrrolidin-1-yl)but-2-en-1-yl)imidazolidine-2,4-dione]
- IC50 on DU145 cells (anti-proliferative effect) (DU145 cells): no measurable IC50
- IC50 (LNCaP cells; [1]): < 1500 nM
- solubility at 1 h (Evaluation of solubility): 1.9 µM (≈ 1.34 µg/mL)

Structure (SMILES): CC1(C)C(=O)N(c2cnc(C#N)c(C(F)(F)F)c2)C(=O)N1C/C=C\Cn1cc(-c2ccc(S(C)(=O)=O)c(Cl)c2)cn1 [Example 5, (Z)-5-(3-(4-(4-(3-chloro-4-(methylsulfonyl)phenyl)-1H-pyrazol-1-yl)but-2-en-1-yl)-4,4-dimethyl-2,5-dioxoimidazolidin-1-yl)-3-(trifluoromethyl)picolinonitrile]
- IC50 on DU145 cells (anti-proliferative effect) (DU145 cells): no measurable IC50
- solubility at 1 h (Evaluation of solubility): 0.65 µM (≈ 0.395 µg/mL)

Structure (SMILES): CC1(C)C(=O)N(c2cnc(C#N)c(C(F)(F)F)c2)C(=O)N1C/C=C\Cn1cc(-c2ccc(S(C)(=O)=O)c(C(F)(F)F)c2)cn1 [Example 4, (Z)-5-(4,4-dimethyl-3-(4-(4-(4-(methylsulfonyl)-3-(trifluoromethyl)phenyl)-1H-pyrazol-1-yl)but-2-en-1-yl)-2,5-dioxoimidazolidin-1-yl)-3-(trifluoromethyl)picolinonitrile]
- IC50 on DU145 cells (anti-proliferative effect) (DU145 cells): no measurable IC50
- solubility at 1 h (Evaluation of solubility): 1.7 µM (≈ 1.09 µg/mL)

Structure (SMILES): CC1(C)CN(c2ccc(C#N)c(C(F)(F)F)c2)C(=O)N1C/C=C\CN1C(=O)N(c2ccc(S(C)(=O)=O)c(C(F)(F)F)c2)C(=O)C1(C)C [Example 9, (Z)-4-(3-(4-(5,5-dimethyl-3-(4-(methylsulfonyl)-3-(trifluoromethyl)phenyl)-2,4-dioxoimidazolidin-1-yl)but-2-en-1-yl)-4,4-dimethyl-2-oxoimidazolidin-1-yl)-2-(trifluoromethyl)benzonitrile]
- IC50 on DU145 cells (anti-proliferative effect) (DU145 cells): no measurable IC50
- IC50 (LNCaP cells; [2]): < 1500 nM

Structure (SMILES): CC1(C)C(=O)N(c2ccc(C#N)c(C(F)(F)F)c2)C(=O)N1C/C=C\Cn1cc(-c2ccc(C#N)c(C(F)(F)F)c2)nn1 [Example 22, (Z)-4-(3-(4-(4-(4-cyano-3-(trifluoromethyl)phenyl)-1H-1,2,3-triazol-1-yl)but-2-en-1-yl)-4,4-dimethyl-2,5-dioxoimidazolidin-1-yl)-2-(trifluoromethyl)benzonitrile]
- IC50 (LNCaP cells; [1]): < 1500 nM

Structure (SMILES): Cc1nn(C/C=C\CN2C(=O)N(c3ccc(C#N)c(C(F)(F)F)c3)C(=O)C2(C)C)c(C)c1-c1ccc(S(C)(=O)=O)c(C(F)(F)F)c1 [Example 6, (Z)-4-(3-(4-(3,5-dimethyl-4-(4-(methylsulfonyl)-3-(trifluoromethyl)phenyl)-1H-pyrazol-1-yl)but-2-en-1-yl)-4,4-dimethyl-2,5-dioxoimidazolidin-1-yl)-2-(trifluoromethyl)benzonitrile]
- IC50 on DU145 cells (anti-proliferative effect) (DU145 cells): no measurable IC50
- solubility at 1 h (Evaluation of solubility): 4.38 µM (≈ 2.92 µg/mL)

Structure (SMILES): CC1(C)CN(c2ccc(S(C)(=O)=O)c(C(F)(F)F)c2)C(=O)N1C/C=C\CN1C(=O)N(c2ccc(S(C)(=O)=O)c(Cl)c2)C(=O)C1(C)C [Example 8, (Z)-3-(3-chloro-4-(methylsulfonyl)phenyl)-1-(4-(5,5-dimethyl-3-(4-(methylsulfonyl)-3-(trifluoromethyl)phenyl)-2-oxoimidazolidin-1-yl)but-2-en-1-yl)-5,5-dimethylimidazolidine-2,4-dione]
- IC50 on DU145 cells (anti-proliferative effect) (DU145 cells): no measurable IC50

Structure (SMILES): CC1(C)C(=O)N(c2ccc(C#N)c(C(F)(F)F)c2)C(=O)N1C/C=C\CN1CCN(c2ccc(S(C)(=O)=O)c(Cl)c2)S1(=O)=O [Example 17, (Z)-4-(3-(4-(5-(3-chloro-4-(methylsulfonyl)phenyl)-1,1-dioxido-1,2,5-thiadiazolidin-2-yl)but-2-en-1-yl)-4,4-dimethyl-2,5-dioxoimidazolidin-1-yl)-2-(trifluoromethyl)benzonitrile]
- IC50 on DU145 cells (anti-proliferative effect) (DU145 cells): no measurable IC50
- IC50 (LNCaP cells; [2]): < 1500 nM
- solubility at 1 h (Evaluation of solubility): 1.97 µM (≈ 1.3 µg/mL)

Structure (SMILES): CC1(C)C(=O)N(c2ccc(S(C)(=O)=O)c(C(F)(F)F)c2)C(=O)N1C/C=C\Cn1cc(-c2ccc(C#N)c(C(F)(F)F)c2)cn1 [Example 2, (Z)-4-(1-(4-(5,5-dimethyl-3-(4-(methylsulfonyl)-3-(trifluoromethyl)phenyl)-2,4-dioxoimidazolidin-1-yl)but-2-en-1-yl)-1H-pyrazol-4-yl)-2-(trifluoromethyl)benzonitrile]
- IC50 on DU145 cells (anti-proliferative effect) (DU145 cells): no measurable IC50

Structure (SMILES): CC1(C)C(=O)N(c2ccc(C#N)c(C(F)(F)F)c2)C(=O)N1C/C=C\Cn1cnc(-c2ccc(S(C)(=O)=O)c(C(F)(F)F)c2)c1 [Example 18, (Z)-4-(4,4-dimethyl-3-(4-(4-(4-(methylsulfonyl)-3-(trifluoromethyl)phenyl)-1H-imidazol-1-yl)but-2-en-1-yl)-2,5-dioxoimidazolidin-1-yl)-2-(trifluoromethyl)benzonitrile]
- IC50 (LNCaP cells; [1]): < 1500 nM

Structure (SMILES): CC1(C)C(=O)N(c2ccc(C#N)c(C(F)(F)F)c2)C(=O)N1C/C=C\CN1CCN(c2ccc(S(C)(=O)=O)c(Cl)c2)C1=O [Example 11, (Z)-4-(3-(4-(3-(3-chloro-4-(methylsulfonyl)phenyl)-2-oxoimidazolidin-1-yl)but-2-en-1-yl)-4,4-dimethyl-2,5-dioxoimidazolidin-1-yl)-2-(trifluoromethyl)benzonitrile]
- IC50 on DU145 cells (anti-proliferative effect) (DU145 cells): no measurable IC50
- IC50 (LNCaP cells; [2]): < 1500 nM
- solubility at 1 h (Evaluation of solubility): 0.34 µM (≈ 0.212 µg/mL)
